Data on 18 compounds can be found in patent publication US20240092790A1, “DIHYDROFUROPYRIDINE DERIVATIVES AS RHO- KINASE INHIBITORS” (CHIESI FARMACEUTICI S.P.A., priority 2020, published 2024).

Structures are written as SMILES. A value given as a limit tells only on which side of the number the result lay.

Format in all cases: biochemical
One experiment has as its target ROCK1 (Homo sapiens, UniProt Q13464). As to the kind of experiment: In vitro inhibitory activity assay ROCK1 (ADP-Glo). The following applies: ATP 200 μM, Cheng-Prusoff; read-out: ROCK 1 (Ki, range of activity). As to the method:
(§1) In Vitro Inhibitory Activity Assay Description ROCK1 and ROCK2
(§2) The effectiveness of compounds of the present invention to inhibit Rho kinase activity can be determined in a 10 μl assay containing 40 mM Tris pH7.5, 20 mM MgCl2 0.1 mg/mL BSA, 50 μM DTT and 2.5 μM peptide substrate (Myelin Basic Protein) using an ADP-Glo kit (Promega). Compounds were dissolved in DMSO such that the final concentration of DMSO was 1% in the assay. All reactions/incubations are performed at 25° C. Compound (2 ul) and either Rho kinase 1 or 2 (4 μl) were mixed and incubated for 30 mins. Reactions were initiated by addition of ATP (4 μl) such that the final concentration of ATP in the assay was 200 μM. After a 1 hour incubation 10 μl of ADP-Glo Reagent was added and after a further 1 hour incubation 20 ul of Kinase Detection Buffer was added and the mixture incubated for a further 45 minutes. The luminescent signal was measured on a luminometer. […] Compounds were tested in dose-response format and the inhibition of kinase activity was calculated at each concentration of compound. To determine the IC50 (concentration of compound required to inhibit 50% of the enzyme activity) data were fit to a plot of % inhibition vs Log 10 compound concentration using a sigmoidal fit with a variable slope and fixing the maximum to 100% and the minimum to 0%. To determine the Ki values the Cheng-Prusoff equation was utilized (Ki=IC50/(1+[S]/Km).
Background: ADP-Glo turns the ADP formed in a reaction into a luminescent signal.

Another experiment concerns the target ROCK2 (Homo sapiens, UniProt O75116). In words: In vitro inhibitory activity assay ROCK2 (ADP-Glo). Conditions: ATP 200 μM, Cheng-Prusoff; read-out: ROCK2 (Ki, range of activity). As to the method: as §1, §2
A further experiment addresses PKA (Homo sapiens, UniProt P17612). As to the kind of experiment: In vitro inhibitory activity assay for PKA (ADP-Glo), reported as selectivity ratio vs ROCK2. Conditions: Ki value for PKA divided by Ki value of ROCK2. The procedure:
In Vitro Inhibitory Activity Assay Description for PKA
The effectiveness of compounds of the present invention to inhibit PKA activity can be determined in a 10 μl assay containing 40 mM Tris pH7.5, 20 mM MgCl2 0.1 mg/ml BSA, 50 μM DTT and 260 μM peptide substrate (kemptide) using an ADP-Glo kit (Promega). Compounds were dissolved in DMSO such that the final concentration of DMSO was 1% in the assay. All reactions/incubations are performed at 25° C. Compound and PKA enzyme (6 μl) were mixed and incubated for 30 mins. Reactions were initiated by addition of ATP (4 μl) such that the final concentration of ATP in the assay was 10 μM. After a 30 minute incubation 10p of ADP-Glo Reagent was added and after a further 1 hour incubation 20 μl of Kinase Detection Buffer was added and the mixture incubated for a further 45 minutes. The luminescent signal was measured on a luminometer. […] Compounds were tested in dose-response format and the inhibition of kinase activity was calculated at each concentration of compound. To determine the IC50 (concentration of compound required to inhibit 50% of the enzyme activity) data were fit to a plot of % inhibition vs Log10 compound concentration using a sigmoidal fit with a variable slope and fixing the maximum to 100% and the minimum to 0%. To determine the Ki values the Cheng-Prusoff equation was utilized (Ki=IC50/(1+[S]/Km).
In vitro inhibitory activities for PKA were reported as selectivity ratio vs. ROCK-2.

Chain of ROCK2 (O75116 whole entry): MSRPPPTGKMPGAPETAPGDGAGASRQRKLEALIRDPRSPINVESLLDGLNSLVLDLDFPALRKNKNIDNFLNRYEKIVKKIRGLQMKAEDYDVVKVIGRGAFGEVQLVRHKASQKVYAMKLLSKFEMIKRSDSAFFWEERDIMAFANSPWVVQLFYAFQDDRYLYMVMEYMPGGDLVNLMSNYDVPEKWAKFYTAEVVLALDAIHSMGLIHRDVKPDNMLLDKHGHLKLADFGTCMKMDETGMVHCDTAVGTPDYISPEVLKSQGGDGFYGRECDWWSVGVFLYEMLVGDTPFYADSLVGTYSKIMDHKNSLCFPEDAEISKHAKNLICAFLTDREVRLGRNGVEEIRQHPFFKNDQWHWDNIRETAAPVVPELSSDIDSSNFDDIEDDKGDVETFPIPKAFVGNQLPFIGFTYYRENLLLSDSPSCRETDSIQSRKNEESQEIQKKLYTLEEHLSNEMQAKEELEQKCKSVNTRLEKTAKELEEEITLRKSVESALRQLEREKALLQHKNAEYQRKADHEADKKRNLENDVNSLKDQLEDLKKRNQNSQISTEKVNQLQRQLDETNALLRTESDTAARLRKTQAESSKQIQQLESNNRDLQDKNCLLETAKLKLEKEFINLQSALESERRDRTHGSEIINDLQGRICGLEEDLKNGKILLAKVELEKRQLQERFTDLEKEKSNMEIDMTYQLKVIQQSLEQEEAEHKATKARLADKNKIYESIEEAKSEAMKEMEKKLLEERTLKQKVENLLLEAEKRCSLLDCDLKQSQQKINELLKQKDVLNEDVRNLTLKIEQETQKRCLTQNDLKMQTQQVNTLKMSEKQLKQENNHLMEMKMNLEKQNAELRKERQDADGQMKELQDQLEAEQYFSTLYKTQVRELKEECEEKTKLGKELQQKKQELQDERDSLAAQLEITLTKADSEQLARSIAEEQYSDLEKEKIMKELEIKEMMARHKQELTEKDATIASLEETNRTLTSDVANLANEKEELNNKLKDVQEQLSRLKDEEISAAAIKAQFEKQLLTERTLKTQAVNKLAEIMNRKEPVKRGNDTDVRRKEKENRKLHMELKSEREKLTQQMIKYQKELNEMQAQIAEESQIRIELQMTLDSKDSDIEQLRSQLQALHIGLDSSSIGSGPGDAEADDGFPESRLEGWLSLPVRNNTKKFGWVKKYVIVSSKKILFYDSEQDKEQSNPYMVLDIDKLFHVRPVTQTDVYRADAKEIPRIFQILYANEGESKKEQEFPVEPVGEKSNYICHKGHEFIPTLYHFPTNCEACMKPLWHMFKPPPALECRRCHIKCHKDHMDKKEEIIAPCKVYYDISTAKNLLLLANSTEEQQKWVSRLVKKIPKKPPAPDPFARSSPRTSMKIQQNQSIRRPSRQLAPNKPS
Chain of ROCK1 (Q13464 whole entry): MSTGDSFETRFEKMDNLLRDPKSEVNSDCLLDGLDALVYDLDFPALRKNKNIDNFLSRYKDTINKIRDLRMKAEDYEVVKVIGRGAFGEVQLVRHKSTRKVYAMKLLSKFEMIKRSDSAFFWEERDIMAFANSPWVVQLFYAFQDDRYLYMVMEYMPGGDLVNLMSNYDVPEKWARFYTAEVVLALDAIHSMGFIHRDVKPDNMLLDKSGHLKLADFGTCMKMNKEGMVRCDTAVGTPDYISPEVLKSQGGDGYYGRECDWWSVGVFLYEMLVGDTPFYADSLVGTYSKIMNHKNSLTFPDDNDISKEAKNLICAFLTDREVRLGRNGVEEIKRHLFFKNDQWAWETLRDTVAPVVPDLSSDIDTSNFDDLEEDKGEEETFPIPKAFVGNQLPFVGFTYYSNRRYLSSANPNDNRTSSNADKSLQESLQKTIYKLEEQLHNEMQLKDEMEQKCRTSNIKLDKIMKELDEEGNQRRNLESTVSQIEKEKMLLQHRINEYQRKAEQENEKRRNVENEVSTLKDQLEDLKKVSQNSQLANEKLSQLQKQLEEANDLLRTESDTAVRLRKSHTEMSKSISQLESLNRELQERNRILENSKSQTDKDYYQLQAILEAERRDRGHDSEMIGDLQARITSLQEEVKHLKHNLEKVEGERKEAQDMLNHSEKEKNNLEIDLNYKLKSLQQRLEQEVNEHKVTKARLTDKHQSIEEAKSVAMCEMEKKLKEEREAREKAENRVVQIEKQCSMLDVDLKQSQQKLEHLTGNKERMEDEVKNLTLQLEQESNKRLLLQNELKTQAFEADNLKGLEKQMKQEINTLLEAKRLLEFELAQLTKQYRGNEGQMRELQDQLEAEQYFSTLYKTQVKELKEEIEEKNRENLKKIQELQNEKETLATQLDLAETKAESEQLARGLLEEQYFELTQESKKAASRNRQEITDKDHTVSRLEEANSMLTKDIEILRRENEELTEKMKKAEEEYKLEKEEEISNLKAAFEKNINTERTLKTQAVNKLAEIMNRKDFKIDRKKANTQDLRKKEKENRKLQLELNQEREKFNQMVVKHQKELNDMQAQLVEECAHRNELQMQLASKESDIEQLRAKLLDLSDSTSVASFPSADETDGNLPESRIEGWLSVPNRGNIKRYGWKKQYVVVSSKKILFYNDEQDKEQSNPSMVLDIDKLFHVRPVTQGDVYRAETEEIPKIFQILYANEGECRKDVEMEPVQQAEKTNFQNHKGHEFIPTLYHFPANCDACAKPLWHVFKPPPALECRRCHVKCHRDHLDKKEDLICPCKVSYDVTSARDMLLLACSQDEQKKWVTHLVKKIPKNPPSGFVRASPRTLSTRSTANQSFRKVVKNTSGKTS

On to `COC(C)(C)CCNC(=O)c1cccc(CNc2ncc(-c3ccnc(N)n3)c3c2CCO3)c1` [Example 36, 3-(((7-(2-Aminopyrimidin-4-yl)-2,3-dihydrofuro[3,2-c]pyridin-4-yl)amino)methyl)-N-(3-methoxy-3-methylbutyl)benzamide], for which the Ki at ROCK1 and on ROCK2 was no more than 3 nM each time. Further, the “Ratio (PKA/ROCK2)” value on PKA is on record as “*** (ratio≥10)”.

In the case of `Nc1nccc(-c2cnc(NCc3cccc(C(=O)N[C@@H]4C[C@@H]4F)c3)c3c2OCC3)n1` [Example 37, 3-(((7-(2-Aminopyrimidin-4-yl)-2,3-dihydrofuro[3,2-c]pyridin-4-yl)amino)methyl)-N-((1R,2S)-2-fluorocyclopropyl)benzamide], the Ki on ROCK1 and at ROCK2 was no more than 3 nM each time. For the same compound, the “Ratio (PKA/ROCK2)” value on PKA was “*** (ratio≥10)”.

With `Nc1nccc(-c2cnc(NCc3cccc(C(=O)NCC4CCO4)c3)c3c2OCC3)n1` (stereo not drawn) [Example 38, 3-(((7-(2-Aminopyrimidin-4-yl)-2,3-dihydrofuro[3,2-c]pyridin-4-yl)amino)methyl)-N-(oxetan-2-ylmethyl)benzamide], the Ki at ROCK1 and at ROCK2 was no more than 3 nM in each case. On PKA, the “Ratio (PKA/ROCK2)” value is “*** (ratio≥10)”.

On to `CO[C@H]1C[C@H](CNC(=O)c2cccc(CNc3ncc(-c4ccnc(N)n4)c4c3CCO4)c2)C1` [Example 39, 3-(((7-(2-Aminopyrimidin-4-yl)-2,3-dihydrofuro[3,2-c]pyridin-4-yl)amino)methyl)-N-(((1R,3R)-3-methoxycyclobutyl)methyl)benzamide], for which the Ki at ROCK1 and at ROCK2 was no more than 3 nM throughout. Further, the “Ratio (PKA/ROCK2)” value at PKA was “*** (ratio≥10)”.

Turning to `CCCNC(=O)c1cccc(CNc2ncc(-c3ccnc(N)n3)c3c2CCO3)c1` [Example 40, 3-(((7-(2-Aminopyrimidin-4-yl)-2,3-dihydrofuro[3,2-c]pyridin-4-yl)amino)methyl)-N-propylbenzamide], the Ki at ROCK1 and on ROCK2 was no more than 3 nM throughout. Moreover, the “Ratio (PKA/ROCK2)” value at PKA is recorded as “*** (ratio≥10)”.

For the compound `CO[C@H]1C[C@H](NC(=O)c2cccc(CNc3ncc(-c4ccnc(N)n4)c4c3CCO4)c2)C1` [Example 41, 3-(((7-(2-Aminopyrimidin-4-yl)-2,3-dihydrofuro[3,2-c]pyridin-4-yl)amino)methyl)-N-((1R,3R)-3-methoxycyclobutyl)benzamide], the Ki on ROCK1 and on ROCK2 was no more than 3 nM throughout. The “Ratio (PKA/ROCK2)” value at PKA was “*** (ratio≥10)”.

`Nc1nccc(-c2cnc(NCc3cccc(C(=O)NC[C@H]4CCCO4)c3)c3c2OCC3)n1` [Example 42, (R)-3-(((7-(2-Aminopyrimidin-4-yl)-2,3-dihydrofuro[3,2-c]pyridin-4-yl)amino)methyl)-N-((tetrahydrofuran-2-yl)methyl)benzamide]: the Ki at ROCK1 and on ROCK2 was no more than 3 nM each time. Besides, the “Ratio (PKA/ROCK2)” value on PKA was “*** (ratio≥10)”.

As for `Nc1nccc(-c2cnc(NCc3cccc(C(=O)NC[C@@H]4CCCO4)c3)c3c2OCC3)n1` [Example 43, (S)-3-(((7-(2-Aminopyrimidin-4-yl)-2,3-dihydrofuro[3,2-c]pyridin-4-yl)amino)methyl)-N-((tetrahydrofuran-2-yl)methyl)benzamide], the Ki at ROCK1 and on ROCK2 was no more than 3 nM in each case. Besides, the “Ratio (PKA/ROCK2)” value at PKA is on record as “*** (ratio≥10)”.

In the case of `CC(F)(F)CNC(=O)c1cccc(CNc2ncc(-c3ccnc(N)n3)c3c2CCO3)c1` [Example 44, 3-(((7-(2-Aminopyrimidin-4-yl)-2,3-dihydrofuro[3,2-c]pyridin-4-yl)amino)methyl)-N-(2,2-difluoropropyl)benzamide], the Ki at ROCK1 and on ROCK2 was no more than 3 nM in each case. Further, the “Ratio (PKA/ROCK2)” value at PKA is “*** (ratio≥10)”.

As for `Nc1nccc(-c2cnc(NCc3cccc(C(=O)N[C@H]4C[C@H]4F)c3)c3c2OCC3)n1` [Example 47, 3-(((7-(2-Aminopyrimidin-4-yl)-2,3-dihydrofuro[3,2-c]pyridin-4-yl)amino)methyl)-N-((1S,2R)-2-fluorocyclopropyl)benzamide], the Ki at ROCK1 and on ROCK2 was no more than 3 nM in each case. In addition, the “Ratio (PKA/ROCK2)” value on PKA is reported as “*** (ratio≥10)”.

As for `Nc1nccc(-c2cnc(NCc3cccc(C(=O)N[C@H]4C[C@@H](F)C4)c3)c3c2OCC3)n1` [Example 48, 3-(((7-(2-Aminopyrimidin-4-yl)-2,3-dihydrofuro[3,2-c]pyridin-4-yl)amino)methyl)-N-((1S,3S)-3-fluorocyclobutyl)benzamide], the Ki on ROCK1 and on ROCK2 was no more than 3 nM each time. Besides, at PKA, the “Ratio (PKA/ROCK2)” value is recorded as “** (5≤ratio<10)”.

In the case of `Nc1nccc(-c2cnc(NCc3cccc(C(=O)N[C@H]4C[C@H](F)C4)c3)c3c2OCC3)n1` [Example 49, 3-(((7-(2-Aminopyrimidin-4-yl)-2,3-dihydrofuro[3,2-c]pyridin-4-yl)amino)methyl)-N-((1r,3r)-3-fluorocyclobutyl)benzamide], the Ki at ROCK1 and on ROCK2 was no more than 3 nM each time. Besides, the “Ratio (PKA/ROCK2)” value on PKA is on record as “*** (ratio≥10)”.

Turning to `Nc1nccc(-c2cnc(NCc3cccc(C(=O)NCCC(F)F)c3)c3c2OCC3)n1` [Example 50, 3-(((7-(2-Aminopyrimidin-4-yl)-2,3-dihydrofuro[3,2-c]pyridin-4-yl)amino)methyl)-N-(3,3-difluoropropyl)benzamide], the Ki on ROCK1 and on ROCK2 was no more than 3 nM each time. Besides, at PKA, the “Ratio (PKA/ROCK2)” value is recorded as “*** (ratio≥10)”.

For the compound `CNC(=O)c1cccc(CNc2ncc(-c3ccnc(N)n3)c3c2CCO3)c1F` [Example 54, 3-(((7-(2-Aminopyrimidin-4-yl)-2,3-dihydrofuro[3,2-c]pyridin-4-yl)amino)methyl)-2-fluoro-N-methylbenzamide], the results for the Ki on ROCK1 and on ROCK2 were greater than 30 nM and 3 to 30 nM, respectively. Moreover, on PKA, the “Ratio (PKA/ROCK2)” value is reported as “*** (ratio≥10)”.

Turning to `COCCCNC(=O)c1cccc(CNc2ncc(-c3ccnc(N)n3)c3c2CCO3)c1F` [Example 55, 3-(((7-(2-Aminopyrimidin-4-yl)-2,3-dihydrofuro[3,2-c]pyridin-4-yl)amino)methyl)-2-fluoro-N-(3-methoxypropyl)benzamide], the inhibition constant (Ki) (commonly the equilibrium dissociation constant of an inhibitor or competing ligand from its target) is 3 to 30 nM on ROCK1 and no more than 3 nM on ROCK2. The “Ratio (PKA/ROCK2)” value at PKA is recorded as “*** (ratio≥10)”.

With `Nc1nccc(-c2cnc(NCc3cccc(C(=O)NC4CCOCC4)c3F)c3c2OCC3)n1` [Example 56, 3-(((7-(2-Aminopyrimidin-4-yl)-2,3-dihydrofuro[3,2-c]pyridin-4-yl)amino)methyl)-2-fluoro-N-(tetrahydro-2H-pyran-4-yl)benzamide], the Ki at ROCK1 and at ROCK2 was 3 to 30 nM throughout. The “Ratio (PKA/ROCK2)” value on PKA is “*** (ratio≥10)”.

`COCCCNC(=O)c1cc(CNc2ncc(-c3ccnc(N)n3)c3c2CCO3)ccc1F` [Example 57, 5-(((7-(2-Aminopyrimidin-4-yl)-2,3-dihydrofuro[3,2-c]pyridin-4-yl)amino)methyl)-2-fluoro-N-(3-methoxypropyl)benzamide]: the figures for the inhibitory constant (Ki) on ROCK1 and on ROCK2 were 3 to 30 nM and no more than 3 nM, respectively. Besides, the “Ratio (PKA/ROCK2)” value at PKA is “*** (ratio≥10)”.

For `Nc1nccc(-c2cnc(NCc3ccc(F)c(C(=O)NC4CCOCC4)c3)c3c2OCC3)n1` [Example 58, 5-(((7-(2-Aminopyrimidin-4-yl)-2,3-dihydrofuro[3,2-c]pyridin-4-yl)amino)methyl)-2-fluoro-N-(tetrahydro-2H-pyran-4-yl)benzamide], the Ki at ROCK1 was 3 to 30 nM; at ROCK2 it was no more than 3 nM. Also, the “Ratio (PKA/ROCK2)” value on PKA is “*** (ratio≥10)”.
